Common to all, as to type: cell-based
For one assay, the system named is S. aureus USA 300. As to the kind of experiment: broth microdilution MIC assay, S. aureus USA 300. As to conditions: Staphylococcus aureus; Table 4; S. aureus USA300; read-out: S. aureus USA300 MIC. In a few lines:
(§1)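 CLSI broth microdilution in cation-supplemented Mueller-Hinton broth, starting inoculum 5×10^5 CFU/mL, 2-fold compound dilutions. Incubation 16-20 h at 37 °C; MIC read visually as the lowest concentration with no growth.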

Assay [1] has as its system S. aureus ATCC 29213 (methicillin sensitive). Put plainly: broth microdilution MIC assay, S. aureus ATCC 29213. As to conditions: Staphylococcus aureus, ATCC 29213 / MSSA; Table 3; S. aureus 29213 (MSSA); read-out: S. aureus 29213 (MSSA) MIC. As for the experimental part: (§2) To determine the ability of test compounds to potentiate the inhibition of the growth of bacterial strains, classic cell-based broth microdilution MIC assays were employed. MIC assays are performed according to CLSI methods except where otherwise noted (CLSI, 2011 and CLSI, 2009). The reference strains S. aureus ATCC 29213 (methicillin sensitive), S. aureus ATCC 33591 (methicillin-resistant), E. coli ATCC 25922 (wild-type/QC strain), P. aeruginosa ATCC 27853 (wild-type/QC strain), and the clinical isolate P. aeruginosa PA 8 were used to determine the ability of the exemplary carbapenem compounds to inhibit bacterial growth. An expanded panel of methicillin resistance S. aureus (MRSA) and Pseudomonas was also used to determine the ability of exemplary carbapenem compounds to inhibit bacterial growth across a broader representation of those species. To determine activity in MRSA and in addition to S. aureus ATCC 33591, S. aureus USA 300, USA 400 and USA 600, some of the most common clones found to cause human infection, were also used. To further gauge the impact on the carbapenem compounds due to various resistance mechanisms in Pseudomonas, the following strains were included: P. aeruginosa 35151 (hyper-permeable strain), P. aeruginosa AmexAB-OprM (an efflux pump knockout), and P. aeruginosa PA 3 (a clinical isolate of reduced carbapenem susceptibility). Briefly, cryo-preserved bacterial cultures of clinical strains are streaked for isolation on appropriate agar medium, in this case Mueller Hinton II agar. Following incubation to allow formation of colonies, these plates are sealed with parafilm and stored refrigerated for up to two weeks. For preparation of assay inocula and to ensure low variability, at least 5 colonies are picked from the agar plates with an inoculating loop and aseptically transferred to a culture tube containing 3 mL of Mueller-Hinton Broth (supplemented with divalent cations to required levels based on Manufacturers' specification). The broth culture is grown for 3-5 hours at 37° C. with shaking at 200 rpm. Meanwhile, 2-fold serial dilutions of test compounds are conducted in a 96 well plate with a final volume of 75 μL per well at 2-fold the final desired concentration. After the dilution plates are set up the growing cultures are then diluted in a cuvette containing MH II broth and the optical density is measured at 600 nm. Inocula are diluted such that 75 μL of this culture in Mueller-Hinton Broth results in a starting bacterial concentration of 5×10^5 CFU/mL when added to the dilution plates. The plates are incubated 16-20 hours at 37° C. The MIC is read visually as the lowest concentration well with no bacterial growth.
(§3) Representative results are shown in Tables 3, 4, and 5 where A represents an MIC>32 μg/mL, B represents an MIC between 8 and 32 μg/mL inclusive, C represents an MIC between 1 and 4 μg/mL inclusive, and D represents an MIC of <1 μg/mL. NT=Not Tested.

For assay [2], the system named is P. aeruginosa ATCC 27853 (wild-type/QC strain). As to the kind of experiment: broth microdilution MIC assay, P. aeruginosa ATCC 27853. As to conditions: Pseudomonas aeruginosa, ATCC27853, P. aeruginosa 27853, read-out: P. aeruginosa 27853 MIC. Put shortly: as §1
On the technique in general: In broth dilution the organism is exposed to a series of concentrations in liquid medium.

In assay [3] the test system is S. aureus ATCC 33591 (methicillin-resistant). As to the kind of experiment: broth microdilution MIC assay, S. aureus ATCC 33591. The following applies: Staphylococcus aureus. Put shortly: as §1
Assay [4] deals with E. coli ATCC 25922 (wild-type/QC strain). As to the kind of experiment: broth microdilution MIC assay, E. coli ATCC 25922. The following applies: Escherichia coli, ATCC25922, E. coli 25922, read-out: E. coli 25922 MIC. Put shortly:
as §1

In another assay the test system is S. aureus USA600. Put plainly: broth microdilution MIC assay, S. aureus USA 600. The following applies: Staphylococcus aureus; Table 4; S. aureus USA600; read-out: S. aureus USA600 MIC. In a few lines:
as §1

Assay [5] relates to P. aeruginosa PA 3 (a clinical isolate of reduced carbapenem susceptibility). Put plainly: broth microdilution MIC assay, P. aeruginosa PA 3. The following applies: Pseudomonas aeruginosa; Table 5; P. aeruginosa PA3. The procedure: as §2, §3
In assay [6] the test system is clinical isolate P. aeruginosa PA 8. As to the kind of experiment: broth microdilution MIC assay, P. aeruginosa PA 8. The following applies: Pseudomonas aeruginosa, P. aeruginosa PA8. Put shortly: as §1
The test system of assay [7] is P. aeruginosa ΔmexAB-OprM (an efflux pump knockout). As to the kind of experiment: broth microdilution MIC assay, P. aeruginosa ΔmexAB-OprM. The following applies: Pseudomonas aeruginosa, 20 h, read-out: P. aeruginosa ΔmexAB-OprM MIC. In a few lines:
as §1

The next assay relates to S. aureus USA400. As to the kind of experiment: broth microdilution MIC assay, S. aureus USA 400. As to conditions: Staphylococcus aureus, Table 4. As for the experimental part:
as §2, §3

In assay [8] the test system is P. aeruginosa 35151 (hyper-permeable strain). As to the kind of experiment: broth microdilution MIC assay, P. aeruginosa 35151. The following applies: Pseudomonas aeruginosa, read-out: P. aeruginosa 35151 MIC. In a few lines:
as §1

Setting [9] is: ATCC 33591 / MRSA, Table 3, S. aureus 33591 (MRSA), read-out: S. aureus 33591 (MRSA) MIC.
Where [10] appears, read: ATCC33591, Table 4, S. aureus 33591, read-out: S. aureus 33591 MIC.

Like-named read-outs stand apart in the source and are kept apart here.

As a reminder, the MIC is the least concentration at which growth counts as inhibited. Take `C[C@@H](O)[C@H]1C(=O)N2C(C(=O)O)=C(S[C@@H]3CCN(CC4CCN(C(=N)N)CC4)C3)[C@H](C)[C@H]12` [Example 35, (4R,5S,6S)-3-(((R)-1-((1-carbamimidoylpiperidin-4-yl)methyl)pyrrolidin-3-yl)thio)-6-((R)-1-hydroxyethyl)-4-methyl-7-oxo-1-azabicyclo[3.2.0]hept-2-ene-2-carboxylic acid]: the minimal inhibitory concentration (MIC) in the assay on S. aureus USA 300 was less than 1 µg/mL; in [1], 1 to 4 µg/mL; in assay [2] (Table 3), 1 to 4 µg/mL; in assay [2] (Table 5), 1 to 4 µg/mL; in assay [3] (setting [9]), 1 to 4 µg/mL; in [3] (setting [10]) it was 1 to 4 µg/mL. Moreover, the minimum inhibitory concentration (MIC) in assay [4] (Table 3) was less than 1 µg/mL; in assay [4] (Table 4), less than 1 µg/mL; with S. aureus USA600, less than 1 µg/mL; in assay [5] it was 8 to 32 µg/mL; in assay [6] (Table 3), 1 to 4 µg/mL; in assay [6] (Table 5), 1 to 4 µg/mL. In addition, the figures for the MIC (in [7]; in the assay on S. aureus USA400; in [8]) were less than 1 µg/mL, 1 to 4 µg/mL and less than 1 µg/mL, respectively.

Consider `C[C@@H](O)[C@H]1C(=O)N2C(C(=O)O)=C(S[C@@H]3CCN(CCCN)C3)[C@H](C)[C@H]12` [Example 36, (4R,5S,6S)-3-(((R)-1-(3-aminopropyl)pyrrolidin-3-yl)thio)-6-((R)-1-hydroxyethyl)-4-methyl-7-oxo-1-azabicyclo[3.2.0]hept-2-ene-2-carboxylic acid], for which the MIC is 8 to 32 µg/mL in the assay on S. aureus USA 300; 8 to 32 µg/mL in assay [2] (Table 3); 8 to 32 µg/mL in assay [2] (Table 5); more than 32 µg/mL in assay [3] (setting [9]); more than 32 µg/mL in assay [3] (setting [10]); less than 1 µg/mL in assay [4] (Table 3). In addition, the MIC in assay [4] (Table 4) was less than 1 µg/mL; in assay [5], more than 32 µg/mL; in assay [6] (Table 3), 8 to 32 µg/mL; in assay [6] (Table 5) it was 8 to 32 µg/mL; with S. aureus USA400, 8 to 32 µg/mL.

Regarding `CNCCCCN1CC[C@@H](SC2=C(C(=O)O)N3C(=O)[C@H]([C@@H](C)O)[C@H]3[C@H]2C)C1` [Example 37, (4R,5S,6S)-6-((R)-1-hydroxyethyl)-4-methyl-3-(((R)-1-(4-(methylamino)butyl)pyrrolidin-3-yl)thio)-7-oxo-1-azabicyclo[3.2.0]hept-2-ene-2-carboxylic acid], the minimal inhibitory concentration (MIC) with S. aureus USA 300 was 8 to 32 µg/mL; in assay [2] (Table 3) it was 1 to 4 µg/mL; in assay [2] (Table 5) it was 1 to 4 µg/mL; in assay [3] (setting [9]), 8 to 32 µg/mL; in assay [3] (setting [10]), 8 to 32 µg/mL; in assay [4] (Table 3), less than 1 µg/mL. For the same compound, the MIC was less than 1 µg/mL in [4] (Table 4); 8 to 32 µg/mL in [5]; 8 to 32 µg/mL in [6] (Table 3); 1 to 4 µg/mL in [6] (Table 5); 1 to 4 µg/mL in the assay with S. aureus USA400.

With `C[C@@H](O)[C@H]1C(=O)N2C(C(=O)O)=C(S[C@@H]3CCN(C4CCC(N)(CN)CC4)C3)[C@H](C)[C@H]12` (stereo partly drawn) [Example 38, (4R,5S,6S)-3-(((R)-1-(4-amino-4-(aminomethyl)cyclohexyl)pyrrolidin-3-yl)thio)-6-((R)-1-hydroxyethyl)-4-methyl-7-oxo-1-azabicyclo[3.2.0]hept-2-ene-2-carboxylic acid], the minimal inhibitory concentration (MIC) is 8 to 32 µg/mL in the assay on S. aureus USA 300; 8 to 32 µg/mL in assay [2] (Table 3); 8 to 32 µg/mL in assay [2] (Table 5); 8 to 32 µg/mL in assay [3] (setting [9]); 8 to 32 µg/mL in [3] (setting [10]); less than 1 µg/mL in assay [4] (Table 3). Further, the MIC in assay [4] (Table 4) was less than 1 µg/mL; in assay [5], 8 to 32 µg/mL; in assay [6] (Table 3) it was 8 to 32 µg/mL; in assay [6] (Table 5) it was 8 to 32 µg/mL; in the assay with S. aureus USA400, 1 to 4 µg/mL.

Consider `C[C@@H](O)[C@H]1C(=O)N2C(C(=O)O)=C(SC3CN(CC4CCNCC4)C3)[C@H](C)[C@H]12` [Example 42, (4R,5S,6S)-6-((R)-1-hydroxyethyl)-4-methyl-7-oxo-3-((1-(piperidin-4-ylmethyl)azetidin-3-yl)thio)-1-azabicyclo[3.2.0]hept-2-ene-2-carboxylic acid], for which the minimum inhibitory concentration (MIC) was 1 to 4 µg/mL in the assay on S. aureus USA 300; 1 to 4 µg/mL in assay [2] (Table 5); 1 to 4 µg/mL in assay [3] (setting [10]); less than 1 µg/mL in assay [4] (Table 4); 1 to 4 µg/mL in the assay with S. aureus USA600; 8 to 32 µg/mL in [5]. The minimal inhibitory concentration (MIC) was 1 to 4 µg/mL in assay [6] (Table 5), 1 to 4 µg/mL in [7], 1 to 4 µg/mL in the assay on S. aureus USA400 and less than 1 µg/mL in assay [8].

On to `C[C@@H](O)[C@H]1C(=O)N2C(C(=O)O)=C(SC3CCN(CC4CCNCC4)CC3)[C@H](C)[C@H]12` [Example 44, (4R,5S,6S)-6-((R)-1-hydroxyethyl)-4-methyl-7-oxo-3-((1-(piperidin-4-ylmethyl)piperidin-4-yl)thio)-1-azabicyclo[3.2.0]hept-2-ene-2-carboxylic acid], for which the MIC in the assay on S. aureus USA 300 was in the range of 1 to 4 µg/mL; in assay [2] (Table 5) it was 8 to 32 µg/mL; in assay [3] (setting [10]) it was 8 to 32 µg/mL; in assay [4] (Table 4), 1 to 4 µg/mL; in assay [5] it was 8 to 32 µg/mL; in [6] (Table 5), 8 to 32 µg/mL. Further, the minimal inhibitory concentration (MIC) in assay [7] is 1 to 4 µg/mL; in the assay with S. aureus USA400, 1 to 4 µg/mL; in assay [8] it was less than 1 µg/mL.

Source of the values: patent publication US12084445B2, “Broad-spectrum carbapenems” (VenatoRx Pharmaceuticals, Inc., priority 2018, dated 2024).
